In PMC3215271 (European journal of pharmacology, 2011):
Where “and” joins values, the source holds several entries; their conditions need not be identical. Identical values can stand only once. Entries after “also recorded” stand apart in the source; their conditions may differ.

Experiments:
[1] = in vivo; cited from earlier work
[2] = tested on: formalin-induced flinching behavior; settings: formalin model; i.p.; ref Holtman et al., 2010b; cited from earlier work
mechanical hyperalgesia [3] = settings: chronic constriction injury; i.p.; ref Holtman et al., 2010b; cited from earlier work
rotarod performance [4] = settings: ref Holtman et al., 2010b, cited from earlier work
[5] = molecular target: T1, human serotonin(3) receptor (Homo sapiens, UniProt P46098); assay: Competition radioligand binding, [3H]LY278584; settings: for Ki: 5HT3
T1 sequence (P46098 24-478): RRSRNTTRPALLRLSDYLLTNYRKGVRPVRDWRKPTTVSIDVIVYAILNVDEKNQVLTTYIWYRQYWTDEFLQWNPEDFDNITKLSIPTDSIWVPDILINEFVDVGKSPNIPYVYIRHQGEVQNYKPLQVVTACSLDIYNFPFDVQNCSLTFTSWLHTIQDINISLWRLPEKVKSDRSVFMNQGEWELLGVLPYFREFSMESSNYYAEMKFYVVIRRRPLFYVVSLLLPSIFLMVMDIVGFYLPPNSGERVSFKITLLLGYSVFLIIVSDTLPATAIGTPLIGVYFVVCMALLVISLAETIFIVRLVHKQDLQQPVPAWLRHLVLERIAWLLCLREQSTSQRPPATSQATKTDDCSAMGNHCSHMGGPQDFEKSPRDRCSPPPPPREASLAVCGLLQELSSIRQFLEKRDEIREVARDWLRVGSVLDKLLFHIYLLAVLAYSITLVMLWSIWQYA

[6] = molecular target: rat γ-aminobutyric acid(A) receptor; assay: Competition radioligand binding, [3H]muscimol, rat brain membranes; settings: GABAA; [3H]muscimol 5 nM
[7] = molecular target: rat γ-aminobutyric acid(B)(1b,2) receptor (Rattus norvegicus, UniProt Q9Z0U4); assay: Competition radioligand binding, [3H]CGP54626; settings: GABAB; [3H]CGP54626 2 nM
rat κ-opioid receptor = rat κ-opioid receptor (Rattus norvegicus, UniProt P34975); assay: Competition radioligand binding, [3H]U69593; settings: 95% CI in parentheses
human μ-opioid receptor = human μ-opioid receptor (Homo sapiens, UniProt P35372); assay: Competition radioligand binding, [3H]DAMGO; settings: 95% CI in parentheses
[8] = tested on: formalin-induced flinching behavior; assay: Rodent model of inflammatory pain; assay type: in vivo, rat; settings: for ED50 (95% CI): formalin test, i.p. 15 min prior to formalin, rat
mechanical hyperalgesia [9] = assay: Chronic constriction nerve injury model of neuropathic pain; assay type: in vivo, rat
tail flick latency = assay: Thermal acute nociception; assay type: in vivo, rat; settings: for maximum possible effect: tail-flick
rotarod performance [10] = assay: Motor coordination; assay type: in vivo, rat
[11] = tested on: α4β2* nicotinic acetylcholine receptors; settings: binding assays; ref Zhang et al., 2008; cited from earlier work
[12] = tested on: nicotinic acetylcholine receptors mediating nicotine-evoked dopamine release; settings: ref Zhang et al., 2008; cited from earlier work
[13] = tested on: nicotinic acetylcholine receptor subtype; assay: Agonist activity at nicotinic receptor subtypes in Xenopus oocytes; settings: any nicotinic acetylcholine receptor subtype evaluated; data not shown
[14] = molecular target: α7 nicotinic acetylcholine receptors (Rattus norvegicus, UniProt Q05941); assay: Voltage clamp electrophysiology, cloned α7 nicotinic receptor in Xenopus oocytes; settings: 95% CI in parentheses
[15] = molecular target: α2β2 nicotinic acetylcholine receptor (Rattus norvegicus, UniProt P12389+P12390); settings: 95% CI in parentheses
[16] = molecular target: α2β4 nicotinic acetylcholine receptor (Rattus norvegicus, UniProt P12389+P12392); settings: 95% CI in parentheses
[17] = molecular target: α3β2 nicotinic acetylcholine receptor (Rattus norvegicus, UniProt P04757+P12390); settings: 95% CI in parentheses
[18] = molecular target: α3β4 nicotinic acetylcholine receptor (Rattus norvegicus, UniProt P04757+P12392); settings: 95% CI in parentheses
[19] = molecular target: α4β2 nicotinic acetylcholine receptors (Rattus norvegicus, UniProt P09483+P12390)
[20] = molecular target: α4β4 nicotinic acetylcholine receptor (Rattus norvegicus, UniProt P09483+P12392); settings: 95% CI in parentheses
[21] = molecular target: α9α10 nicotinic acetylcholine receptors (Rattus norvegicus, UniProt P43144+Q9JLB5)
[22] = molecular target: α1β1δε nicotinic acetylcholine receptor (Mus musculus, UniProt P02716+P04756+P09690+P20782); settings: 95% CI in parentheses
[23] = molecular target: α6/α3β4 nicotinic acetylcholine receptor (Rattus norvegicus, UniProt P04757+P12392+P43143); settings: 95% CI in parentheses
[24] = molecular target: α6/α3β2β3 nicotinic acetylcholine receptor (Rattus norvegicus, UniProt P04757+P12390+P12391+P43143); settings: 95% CI in parentheses
[25] = chronic constriction injury paw, 3600 μg/kg i.p.

α-conotoxin Vc1.1
adverse effects [1]: did not produce any adverse effects

c1cncc([C@@H]2CCCN2)c1 [S(−) nornicotine]
ED50 [2]: 1.5 (0.6–3.6) mg/kg
ED50 (mechanical hyperalgesia [3]): 5.2 (3.1–8.5) mg/kg
ED50 for motor impairment vs. analgesia, fold higher (rotarod performance [4]; rotarod vs chronic constriction injury and formalin): 3–9 fold
ED50 (rotarod performance [4]; rotarod, motor impairment, i.p.): 13.6 (9.2–19.9) mg/kg

C(#Cc1cc(C#CCCC[n+]2cccc(-c3ccccc3)c2)c(C#CCCC[n+]2cccc(-c3ccccc3)c2)cc1C#CCCC[n+]1cccc(-c2ccccc2)c1)CCC[n+]1cccc(-c2ccccc2)c1.[Br-].[Br-].[Br-].[Br-] [ZZ-204G, 5,5′,5″, 5‴-(1,2,4,5-benzenetetrayl)tetrakis-[1-(3-phenylpyridinium)-4-pentyne] tetrabromide]
Ki ([5]; [3H]LY278584 0.3 nM, 95% CI in parentheses): 2230 nM
Ki ([5]; displacing [3H]LY27854): 2200 nM
Hill Slope ([5]; 5HT3 binding, 95% CI in parentheses): 1.05 (0.73–1.37)
Ki [6]: > 10 µM
Ki [7]: > 10 µM
Hill Slope (rat κ-opioid receptor; κ-opioid binding): 0.95 (0.67–1.2)
Ki (rat κ-opioid receptor; κ-opioid, [3H]U69593 0.3 nM): 783 nM
Hill Slope (human μ-opioid receptor; μ-opioid binding): 1.1 (0.94–1.3)
Ki (human μ-opioid receptor; μ-opioid, [3H]DAMGO 0.3 nM): 659 nM
ED50 (95% CI) ([8]; the first phase (0–10 min)): 16.2 (2.9–90.3) μg/kg
ED50 (95% CI) ([8]; the second phase (20–60 min)): 2.12 (1.24 – 5.65) μg/kg
greater potency against formalin-evoked inflammatory pain than neuropathic pain ([8]; formalin vs chronic constriction injury): ~ 50 fold
maximum possible effect (mechanical hyperalgesia [9]; [25]): 81.9±7.6%
time maximum possible effect was maintained after administration (mechanical hyperalgesia [9]; [25]): 240 min
time to reach maximum possible effect (mechanical hyperalgesia [9]; [25]): ≤ 60 min
ED50 (95% CL) (mechanical hyperalgesia [9]; chronic constriction injury, paw pressure test, mechanical hyperalgesia, i.p., rat): 96.2 (35.7–255.3) μg/kg
AUC0–120min (antihyperalgesic effect) (mechanical hyperalgesia [9]; chronic constriction injury, 3.6 μg/kg i.p.): 932.8±672.1
AUC0–120min (antihyperalgesic effect) (mechanical hyperalgesia [9]; chronic constriction injury, 36 μg/kg i.p.): 1845.3±1008.0
AUC0–120min (antihyperalgesic effect) (mechanical hyperalgesia [9]; chronic constriction injury, 360 μg/kg i.p.): 3126.6±840.9
AUC0–120min (antihyperalgesic effect) (mechanical hyperalgesia [9]; chronic constriction injury, 3600 μg/kg i.p.): 6946.9±1632.2
antinociceptive effect in the tail-flick assay (tail flick latency; 3.6, 36, 360 μg/kg i.p. vs saline): not antinociceptive; also recorded: did not significantly differ from that of saline control
maximum possible effect (tail flick latency; 3.6 μg/kg i.p.): 8.4±4.6%
maximum possible effect (tail flick latency; 36 μg/kg i.p.): 6.2±1.75%
maximum possible effect (tail flick latency; 360 μg/kg i.p.): 15.6±2.4%
motor effect at highest antihyperalgesic dose (rotarod performance [10]; naïve rats, 3,600 ug/kg): significant motor effect
ED50 (95% CI), motor incoordination (rotarod performance [10]; rotarod performance, intact rats, i.p.): 1884 (942–3767) μg/kg
affinity for α4β2* nicotinic acetylcholine receptors [11]: poor affinity
antagonism at nicotinic receptors mediating nicotine-evoked dopamine release [12]: weak antagonist
agonist activity [13]: No agonist activity
Hill Slope [14]: 1.03 (0.48–1.6)
IC50 ([14]; oocytes, acetylcholine 200 μM): 8.8 nM
Hill Slope [15]: 1.25 (0.98–1.5)
IC50 ([15]; oocytes, acetylcholine 100 μM): 2330 nM
Hill Slope [16]: 1.36 (0.98–1.7)
IC50 ([16]; oocytes, acetylcholine 100 μM): 2900 nM
Hill Slope [17]: 1.11 (0.28–1.9)
IC50 ([17]; oocytes, acetylcholine 100 μM): 750 nM
Hill Slope [18]: 1.56 (1.1–2.0)
IC50 ([18]; oocytes, acetylcholine 100 μM): 792 nM
block of acetylcholine-induced currents ([19]; 100 nM compound): ~ 5% and < 5%
Hill Slope ([19]; 95% CI in parentheses): 1.05 (0.73–1.4)
IC50 ([19]; oocytes, acetylcholine 100 μM, 95% CI in parentheses): 3.83 µM
Hill Slope [20]: 1.6 (0.99–2.2)
IC50 ([20]; oocytes, acetylcholine 100 μM): 1730 nM
inhibition of the acetylcholine response ([21]; α9α10, 10 nM compound, 0.01 µM): 93.9 ± 1.4% and ~ 95%
effect on current with Ca++ in buffer replaced with equimolar Ba++ ([21]; α9α10, 100 nM compound, n=3, data not shown): abolished the current
Hill Slope ([21]; α9α10, 95% CI in parentheses): 0.84 (0.59–1.1)
reversibility of block ([21]; α9α10, washout of compound): Block was reversed upon washout
potency at κ- and μ-opioid receptors, fold less than at α9α10 ([21]; κ- and μ-opioid receptors vs α9α10): 1000 fold
Hill Slope [22]: 1.61 (1.2–2.1)
IC50 ([22]; oocytes, acetylcholine 10 μM): 120 nM
Hill Slope [23]: 1.2 (0.73–1.8)
IC50 ([23]; oocytes, acetylcholine 100 μM): 6.14 µM
Hill Slope [24]: 0.44 (0.33–0.56)
IC50 ([24]; oocytes, acetylcholine 100 μM): 98.2 nM
